Source: patent publication US20240415756A1, “PEPTIDES AND COMPOSITIONS FOR USE IN COSMETICS” (LIPOTRUE, S.L., priority 2022, published 2024)
Marks after values point to notes of the source that are not given here. Ends that are not written are not given here.

Legend:
[1] = test system: voltage-gated sodium channels; assay: QPatch48 HT electrophysiology of sodium channels in SHSY-5Y cells; type: cell-based, human
Experimental: Using SHSY-5Y cells, electrophysiology was performed to measure ion channel activity using the QPatch48 HT (Sophion, Denmark). The samples tested were: • Negative control: 0.05% (v/v) Bovine Serum Albumin • Positive control: Tetradotoxin (TTX) at a concentration of 3 nM, 10 nM and 30 nM. • SEQ ID NO: 2—NH2 at a concentration of 0.005 mg/mL, 0.01 mg/ml and 0.05 mg/mL. • SEQ ID NO: 3—NH2 at a concentration of 0.005 mg/mL, 0.01 mg/ml and 0.05 mg/mL. • SEQ ID NO: 4—NH2 at a concentration of 0.005 mg/mL, 0.01 mg/ml and 0.05 mg/mL. • SEQ ID NO: 5—NH2 at a concentration of 0.005 mg/ml, 0.01 mg/mL and 0.05 mg/mL. • SEQ ID NO: 6—NH2 at a concentration of 0.005 mg/mL, 0.01 mg/ml and 0.05 mg/mL.
The percentage inhibition for each test dose application period was calculated as a reduction in mean cursor value (peak current) relative to the cursor value measured at the end of the vehicle control (pre-drug) and normalized to the maximum inhibition recorded with the supramaximal addition of TTX.

[2] = test system: HDFa cells; assay: Procollagen I alpha 1 release from HDFa cells (ELISA); type: cell-based, human; details: 48 h
Experimental: A stock solution of the peptide was prepared in water at 25 mg/mL. This stock was further diluted to obtain the final working concentrations of 0.01, 0.015 or 0.05 mg/mL in complete medium (Medium 106 supplemented with 2% LSGS). Untreated cells were used as basal condition.
For this study, HDFa cells were seeded in a 24-well plate at a density of 100,000 cells/well and maintained at standard culture conditions (Medium 106 supplemented with 2% LSGS; 37° C., 95% Relative Humidity, 5% CO2) for 24 hours.
After 24 hours, cells were treated for 48 h with the peptide of the present invention mentioned above (0.01, 0.015 and 0.05 mg/mL). After treatments, supernatants were collected and centrifuged in order to eliminate cell debris and were kept at −80° C. until they were used for procollagen I alpha 1 quantification with a human procollagen I alpha 1 DuoSet ELISA kit according to manufacturer instructions. Each condition was performed at least in triplicate (n=3) in three independent experiments (N=3).

[3] = test system: HDFa cells; assay: Elastin synthesis in HDFa cells (Fastin Elastin Assay Kit); type: cell-based, human; details: 0.01 and 0.015 mg/ml, 48 hours, vs untreated samples
Experimental: A stock solution of the peptide was prepared in water at 25 mg/mL. This stock was further diluted to obtain the final working concentrations of 0.005, 0.01 or 0.015 mg/mL in complete medium (Medium 106 supplemented with 2% LSGS). Untreated cells were used as basal condition.
For this study, HDFa cells were seeded in a 12-well plate at a density of 120,000 cells/well and maintained at standard culture conditions (Medium 106+2% LSGS; 37° C., 95% Relative Humidity, 5% CO2) for 24 hours. Then, fibroblasts were treated for 48 hours with 0.005, 0.01 or 0.015 mg/mL of the peptide mentioned above. After treatment, cells were harvested for elastin quantification with the Fastin Elastin Assay Kit, according to manufacturer instructions. Each condition was performed at least in triplicate (n=3) in three independent experiments (N=3).

[4] = test system: muscle contraction-related genes; assay: RT-qPCR expression of muscle contraction-related genes in myocytes; type: cell-based, human; details: 0.01 or 0.005 mg/mL, 24 h
Experimental: A stock solution of the peptide was prepared in milli-Q water at 25 mg/mL. This stock was further diluted in the corresponding supplemented medium to obtain the final working concentrations of 0.01 and 0.005 mg/mL. Untreated cells were used as negative control samples.
The relevant genes for which the expression was measured were: SCN1B (Sodium Voltage-Gated Channel Beta Subunit 1), SCN4A (Sodium Voltage-Gated Channel Alpha Subunit 4), SCN3A (Sodium Voltage-Gated Channel Alpha Subunit 3), CALM3 (Calmodulin 3) and RAPSN (Receptor Associated Protein of the Synapse). The primers used for each of the genes were commercially available TaqMan Gene Expression Assay probes. The experiment was performed in vitro in myocytes, two concentrations of the peptide were tested (0.01 mg/ml and 0.005 mg/mL) at 24 h.
Briefly, human skeletal muscle myoblasts were seeded in 12-well plates at a density of 1×10^5 cells/well and maintained at standard culture conditions (SKM-M medium supplemented with 1% Antibiotic/Antimycotic; 37° C., 95% Relative Humidity, 5% CO2) for 48-72 hours until the plated myoblasts reached 80-90% confluence. […]
The obtained data were analyzed using the ΔΔCt method, which provides the target gene expression values as fold changes in the treated sample compared with an untreated basal sample. […]

[5] = test system: ECM-related genes; assay: RT-qPCR expression of ECM-related genes in HDFa cells; type: cell-based, human
Experimental: A stock solution of the peptide was prepared in milli-Q water at 25 mg/mL. This stock was further diluted in the corresponding supplemented medium to obtain the final working concentrations of 0.05, 0.01 and 0.005 mg/mL. Untreated cells were used as negative control samples.
The relevant genes for which the expression was measured were: MMP1 (matrix metallopeptidase 1), HYAL1 (hyaluronidase 1), TIMP2 (TIMP metallopeptidase inhibitor 2), HAS1 (hyaluronan synthase 1), FBLN5 (fibulin 5), LOXL1 (lysyl oxidase like 1), COL4A1 (collagen type IV alpha 1 chain), COL3A1 (collagen type III alpha 1 chain) and COL7A1 (collagen type VII alpha 1 chain). The primers used for each of the genes were commercially available TaqMan Gene Expression Assay probes.
Briefly, HDFa cells were seeded in 12-well plates at a density of 1.5×10^5 cells/well and maintained at standard culture conditions (106 Medium supplemented with 1% LSGS; 37° C., 95% Relative Humidity, 5% CO2) for 24 hours. Then, cells were treated with the above-mentioned peptide at 0.005, 0.01 or 0.05 mg/mL for additional 6 or 24 hours.
Cells were finally lysed, and RNA extraction was performed using Qiagen RNeasy Mini kit following manufacturer's instructions. Purified RNAs were used to generate the corresponding cDNAs by reverse transcription which served as templates for amplification. RT-qPCR was performed with the panel of TaqMan assay probes specified above and 2x gene expression Master Mix using StepOne plus Real-Time PCR instrument. Amplification included 40 cycles of: 15 seconds at 95° C. (denaturation) and 1 minute at 60° C. (Annealing and extension).
The obtained data were analyzed using the ΔΔCt method, which provides the target gene expression values as fold changes in the treated sample compared with an untreated basal sample. Both samples were normalized with the relative expression of a housekeeping gene GAPDH (Glyceraldehyde 3-phosphate dehydrogenase).
The steps for analysis included: • 1. Calculate the average Ct for each condition • 2. Calculate the ΔCT test sample and the ΔCT calibrator sample • 3. Calculate the ΔΔCT: ΔΔCT=ΔCT test sample−ΔCT calibrator sample • 4. Obtain ratio by 2^−ΔΔCT

[6] = test system: Human Fibroblast (SF-TY JCRB); assay: Hyaluronic acid synthesis in human skin fibroblasts (ELISA); type: cell-based; details: 48 hours, first experimental session; for % HA content: negative control = 100
Experimental: In this case the objective of this experiment was to evaluate in vitro the capability of the peptides of the present invention to increase Hyaluronic Acid (HA) synthesis or production in human skin fibroblasts. This evaluation was carried out by determination of HA amount after cell treatment with the peptide (at the different concentrations noted below), for 48 hours.
The experimental groups were: • Untreated cell cultures (negative control). • Cells treated with the peptide of the present invention (at 0.005 mg/mL, 0.01 mg/ml or 0.05 mg/mL).
Treatment was performed for 48 hours. Treatments were performed in triplicate and in two different experimental sessions.
The experimental model used in this study were Human Fibroblast (SF-TY JCRB) cultivated in MEM with fetal bovine serum 10% and 1% antibiotics at 37° C., 5% CO2.
Cells were seeded in 96-well plate at 1×10^4 cells/well and maintained for 24 h at standard culture conditions (37° C., 95% Relative Humidity, 5% CO2) before the treatment was applied.
At the end of the experimental period, the determination of Hyaluronic synthesis was carried out by means of ELISA method. Commercial kits were used for this purpose. The test kit employed a two-site sandwich ELISA to quantitate HA in samples. Briefly, an antibody specific for HA was pre-coated onto a microplate; Standards and samples were pipetted into the wells and any HA present got bound by the immobilized antibody; after removing any unbound substances, a biotin-conjugated antibody specific for HA was added to the wells; after washing, Streptavidin conjugated Horseradish Peroxidase (HRP) was added to the wells; following a wash to remove any unbound avidin-enzyme reagent, a substrate solution was added to the wells and color developed in proportion to the amount of HA bound in the initial step. The color development was stopped, and the intensity of the color was measured. A calibration curve of known concentrations of standard hyaluronic acid was used to perform the determination of the tested samples.
The results are expressed as % of HA content in cell culture medium and cell lysate, which is calculated by stablishing the content of HA in the negative control as 100% and making the appropriate comparison with the rest of the samples.

[7] = biological target: T1, human NaV1.3 (Homo sapiens, UniProt Q9NY46); assay: QPatch48 HT electrophysiology of NaV1.3 stably transfected into CHO cells; type: cell-based; details: 10 μM peptide, triplicate, vs separate negative control
T1 construct: expressed in transfected cells; host or cells: Chinese Hamster Ovary (CHO) cells, stably transfected
Experimental: Using human NaV1.3 stably transfected into Chinese Hamster Ovary (CHO) cells, electrophysiology was performed to measure ion channel activity using the QPatch48 HT (Sophion, Denmark). Experiments were performed in triplicate and using a concentration of peptide of 10 μM. A separate negative control was performed for each of the peptides. As positive control Amitriptyline was used.

[8] = 24 h, 0.05 mg/ml of the peptide

T1 sequence (Q9NY46 whole entry): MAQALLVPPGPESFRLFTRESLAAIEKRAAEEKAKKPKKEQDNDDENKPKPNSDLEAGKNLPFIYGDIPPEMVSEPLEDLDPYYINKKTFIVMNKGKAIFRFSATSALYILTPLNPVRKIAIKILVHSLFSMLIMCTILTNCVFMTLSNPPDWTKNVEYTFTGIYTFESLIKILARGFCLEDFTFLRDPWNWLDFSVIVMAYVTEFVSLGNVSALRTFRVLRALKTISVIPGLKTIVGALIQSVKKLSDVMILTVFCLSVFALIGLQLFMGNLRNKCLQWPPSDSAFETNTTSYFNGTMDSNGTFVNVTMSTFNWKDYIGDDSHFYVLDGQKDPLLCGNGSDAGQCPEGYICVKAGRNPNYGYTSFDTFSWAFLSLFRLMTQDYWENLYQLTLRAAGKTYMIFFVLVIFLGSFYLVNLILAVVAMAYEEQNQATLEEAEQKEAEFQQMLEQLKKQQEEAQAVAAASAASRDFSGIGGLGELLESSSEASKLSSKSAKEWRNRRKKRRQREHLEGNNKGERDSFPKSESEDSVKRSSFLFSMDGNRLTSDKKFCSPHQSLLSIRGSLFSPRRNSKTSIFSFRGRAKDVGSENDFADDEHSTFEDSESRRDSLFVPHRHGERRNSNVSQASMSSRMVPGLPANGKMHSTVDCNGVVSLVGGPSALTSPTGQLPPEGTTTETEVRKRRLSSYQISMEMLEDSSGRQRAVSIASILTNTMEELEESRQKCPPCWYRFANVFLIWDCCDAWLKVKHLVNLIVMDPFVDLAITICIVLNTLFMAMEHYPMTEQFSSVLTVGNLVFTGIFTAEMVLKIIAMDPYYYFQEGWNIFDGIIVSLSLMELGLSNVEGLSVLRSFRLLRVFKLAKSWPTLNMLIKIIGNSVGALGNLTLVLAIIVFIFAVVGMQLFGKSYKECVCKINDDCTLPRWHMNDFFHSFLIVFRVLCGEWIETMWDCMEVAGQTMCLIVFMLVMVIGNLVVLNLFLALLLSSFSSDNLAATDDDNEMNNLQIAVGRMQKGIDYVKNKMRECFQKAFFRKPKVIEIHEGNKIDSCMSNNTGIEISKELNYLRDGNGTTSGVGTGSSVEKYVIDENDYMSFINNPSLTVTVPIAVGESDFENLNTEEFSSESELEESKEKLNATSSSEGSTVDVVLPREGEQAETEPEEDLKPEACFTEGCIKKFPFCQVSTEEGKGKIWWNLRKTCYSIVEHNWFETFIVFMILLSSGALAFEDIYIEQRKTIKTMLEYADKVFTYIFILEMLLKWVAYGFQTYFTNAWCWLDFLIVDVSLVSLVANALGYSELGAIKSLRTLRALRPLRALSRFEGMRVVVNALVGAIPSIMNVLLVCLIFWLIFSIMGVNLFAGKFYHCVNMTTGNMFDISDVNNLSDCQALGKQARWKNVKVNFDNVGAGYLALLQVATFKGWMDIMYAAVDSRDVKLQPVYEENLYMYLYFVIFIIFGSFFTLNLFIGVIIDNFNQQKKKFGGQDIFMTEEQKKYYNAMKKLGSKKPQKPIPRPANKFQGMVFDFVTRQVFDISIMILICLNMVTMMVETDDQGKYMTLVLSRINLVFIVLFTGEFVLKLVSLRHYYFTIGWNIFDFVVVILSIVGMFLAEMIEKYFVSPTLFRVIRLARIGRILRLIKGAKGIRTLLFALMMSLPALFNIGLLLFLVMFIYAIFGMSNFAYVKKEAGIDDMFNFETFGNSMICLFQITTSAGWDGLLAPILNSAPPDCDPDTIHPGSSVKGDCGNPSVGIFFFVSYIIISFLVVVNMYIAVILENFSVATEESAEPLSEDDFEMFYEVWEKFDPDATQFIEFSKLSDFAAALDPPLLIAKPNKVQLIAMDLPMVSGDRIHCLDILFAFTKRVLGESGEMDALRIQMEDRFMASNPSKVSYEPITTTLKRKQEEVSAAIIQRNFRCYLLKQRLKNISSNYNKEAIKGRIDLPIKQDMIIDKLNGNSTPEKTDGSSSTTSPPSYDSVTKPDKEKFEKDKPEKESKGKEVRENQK

NC1=N[C@H](O)[C@H]2[C@H]3O[C@]4(O)O[C@@H]([C@@H](O)[C@@]2(N1)[C@@H]4O)[C@]3(O)CO [TTX, tetrodotoxin, reference compound]
blocking effect on sodium channels [1]: full blocking effect

Ile-Glu-Pro-Tyr-Tyr-Val-NH2 (IEPYYV-NH2) [SEQ ID NO: 5—NH2]
ranking of sodium channel inhibition among tested peptides at the lower concentration ([1]; 0.005 mg/mL, SHSY-5Y cells): performed the best

KDRVY-NH2 [SEQ ID NO: 4—NH2, Lys-Asp-Arg-Val-Tyr-NH2]
increase of procollagen I alpha 1 protein release ([2]; HDFa, 0.05 mg/mL (highest tested concentration)): 53% | procollagen I alpha 1 protein release ([2]; HDFa, 0.01, 0.015 and 0.05 mg/mL, vs untreated cells): increased at all tested concentrations, in a dose-dependent manner | ranking of sodium channel inhibition among tested peptides at the two higher concentrations ([1]; 0.01 and 0.05 mg/mL, SHSY-5Y cells): best results | elastin levels [3]: increase of elastin levels | expression of sodium channels and muscle contraction-related genes (SCN1B, SCN4A, SCN3A, CALM3, RAPSN) [4]: downregulate | HYAL1 gene expression ([5]; 6 h, 0.005 mg/ml of the peptide): downregulation | HAS1 gene expression ([5]; 6 h, 0.05 mg/ml of the peptide): upregulation | COL3A1 gene expression ([5]; 24 h, 0.01 mg/m of the peptide): upregulation | COL4A1 gene expression ([5]; 24 h, 0.01 mg/m of the peptide): upregulation | MMP1 gene expression ([5]; 24 h, 0.01 mg/m of the peptide): downregulation | COL7A1 gene expression [5, 8]: upregulation | FBLN5 gene expression [5, 8]: upregulation | LOXL1 gene expression [5, 8]: upregulation | TIMP2 gene expression [5, 8]: upregulation | % Variation with regard to negative control ([6]; 0.005 mg/mL): 7.57** % | % HA content ([6]; 0.005 mg/mL): 107.57** % | % Variation with regard to negative control ([6]; 0.01 mg/mL): 21.75*** % | % HA content ([6]; 0.01 mg/mL): 121.75*** % | % Variation with regard to negative control ([6]; 0.05 mg/mL): 39.21*** % | % HA content ([6]; 0.05 mg/mL): 139.21*** %

Lys-Arg-Arg-Tyr-Tyr-Cys-NH2 (KRRYYC-NH2) [SEQ ID NO: 2—NH2]
inhibition of NaV1.3 inward currents [7]: increased and statistically significant effect

Lys-His-Arg-Ser-Tyr-NH2 (KHRSY-NH2) [SEQ ID NO: 3—NH2]
inhibition of NaV1.3 inward currents [7]: increased and statistically significant effect
